Experimental data taken from patent US8101754B2, “Triazole compounds suitable for treating disorders that respond to modulation of the dopamine D3 receptor” (Abbott GmbH & Co. KG, priority 2004, dated 2012).
Where a name gives a salt, the structure may show the parent alone. Read-outs that look alike come from different tables or passages of the source. Each block holds one compound with its values, some of them ahead of it.

How the values were obtained:
[1] = target: T1, human dopamine D2L receptors (long isoform) (Homo sapiens, UniProt P14416); test: Dopamine D2L receptor binding ([125I] iodospiperone), basis of selectivity Ki(D2)/Ki(D3); settings: D2L vs D3
T1 construct: expressed in transfected cells; membranes)
Experimental: The substance to be tested was either dissolved in methanol/Chremophor® (BASF-AG) or in dimethyl sulfoxide and then diluted with water to the desired concentration. […] Each assay mixture was run in triplicate. The incubation buffer contained 50 mM tris, 120 mM NaCl, 5 mM KCl, 2 mM CaCl2, 2 mM MgCl2 and 0.1% bovine serum albumin. The buffer was adjusted to pH 7.4 with HCl. Measurement and Analysis: After having been incubated at 25° C. for 60 minutes, the assay mixtures were filtered through a Wathman GF/B glass fiber filter under vacuum using a cell collecting device. The filters were transferred to scintillation viols using a filter transfer system. After 4 ml of Ultima Gold® (Packard) have been added, the samples were shaken for one hour and the radioactivity was then counted in a Beta-Counter (Packard, Tricarb 2000 or 2200CA). The cpm values were converted into dpm using a standard quench series and the program belonging to the instrument. The inhibition curves were analyzed by means of iterative nonlinear regression analysis using the Statistical Analysis System (SAS) which is similar to the “LIGAND” program described by Munson and Rodbard.

[2] = target: T2, human dopamine D3 receptors (Homo sapiens, UniProt P35462); test: Dopamine D3 receptor binding ([125I]-iodosulpride displacement)
T2 construct: expressed in transfected cells; membranes)
Experimental: The substance to be tested was either dissolved in methanol/Chremophor® (BASF-AG) or in dimethyl sulfoxide and then diluted with water to the desired concentration.
Each assay mixture was run in triplicate.
The incubation buffer contained 50 mM tris, 120 mM NaCl, 5 mM KCl, 2 mM CaCl2, 2 mM MgCl2 and 0.1% bovine serum albumin, 10 μM quinolone and 0.1% ascorbic acid (prepared fresh daily). The buffer was adjusted to pH 7.4 with HCl.
Measurement and Analysis:
After having been incubated at 25° C. for 60 minutes, the assay mixtures were filtered through a Wathman GF/B glass fiber filter under vacuum using a cell collecting device. The filters were transferred to scintillation viols using a filter transfer system. After 4 ml of Ultima Gold® (Packard) have been added, the samples were shaken for one hour and the radioactivity was then counted in a Beta-Counter (Packard, Tricarb 2000 or 2200CA). The cpm values were converted into dpm using a standard quench series and the program belonging to the instrument.
The inhibition curves were analyzed by means of iterative nonlinear regression analysis using the Statistical Analysis System (SAS) which is similar to the “LIGAND” program described by Munson and Rodbard.

[3] = Table 5, membranes of HEK-293 cells, read-out: Ki D3
[4] = Table 6, membranes of HEK-293 cells, read-out: ki D3
[5] = compounds II, read-out: Ki D3 values

T1 sequence (P14416 whole entry, canonical isoform): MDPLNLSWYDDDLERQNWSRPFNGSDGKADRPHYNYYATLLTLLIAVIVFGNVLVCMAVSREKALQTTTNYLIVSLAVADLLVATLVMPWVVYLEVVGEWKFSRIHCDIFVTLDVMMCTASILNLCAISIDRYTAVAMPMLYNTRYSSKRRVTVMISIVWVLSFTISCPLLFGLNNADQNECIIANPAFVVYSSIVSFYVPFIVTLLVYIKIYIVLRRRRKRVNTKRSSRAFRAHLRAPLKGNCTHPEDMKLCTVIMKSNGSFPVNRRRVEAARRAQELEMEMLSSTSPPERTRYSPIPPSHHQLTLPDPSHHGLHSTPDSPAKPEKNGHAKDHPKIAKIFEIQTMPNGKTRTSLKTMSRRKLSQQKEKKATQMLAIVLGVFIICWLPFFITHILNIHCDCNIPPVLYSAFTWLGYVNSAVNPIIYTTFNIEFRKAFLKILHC
T2 sequence (P35462 whole entry): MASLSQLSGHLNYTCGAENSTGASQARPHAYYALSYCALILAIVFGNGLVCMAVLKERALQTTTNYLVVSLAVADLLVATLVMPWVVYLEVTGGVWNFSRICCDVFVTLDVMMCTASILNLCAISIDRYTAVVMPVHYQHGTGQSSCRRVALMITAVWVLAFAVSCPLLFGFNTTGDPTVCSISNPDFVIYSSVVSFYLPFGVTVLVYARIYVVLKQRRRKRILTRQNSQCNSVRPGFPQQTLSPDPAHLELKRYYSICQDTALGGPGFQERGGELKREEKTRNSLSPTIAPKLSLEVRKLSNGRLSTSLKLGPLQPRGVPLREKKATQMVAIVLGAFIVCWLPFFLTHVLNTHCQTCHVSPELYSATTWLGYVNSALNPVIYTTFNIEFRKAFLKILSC

Selectivity [Ki(D2)/Ki(D3)] ([1]; Table 6): 18 | Ki [2, 4]: 0.0166 µM
Compound: Cl.Cn1cnc([S+]([O-])CCCN2CCN(c3cc(C(F)(F)F)nc(C(C)(C)C)n3)CC2)n1 (centres unmarked) [Example 21, 2-tert-Butyl-4-{4-[3-(1-methyl-1H-[1,2,4]triazole-3-sulfinyl)-propyl]-piperazin-1-yl}-6-trifluoromethyl-pyrimidine hydrochloride]

Selectivity [Ki(D2)/Ki(D3)] ([1]; Table 6): 19 | Ki [2, 4]: 0.0474 µM
Compound: CC(C)(C)c1cc(N2CCN(CCCS(=O)(=O)c3nc[nH]n3)CC2)nc(C(C)(C)C)n1 [Example 22, 2,4-Di-tert-butyl-6-{4-[3-(1H-[1,2,4]triazole-3-sulfonyl)-propyl]-piperazin-1-yl}-pyrimidine]

Selectivity [Ki(D2)/Ki(D3)] ([1]; Table 6): 49 | Ki [2, 4]: 0.0598 µM
Compound: CC(C)c1cc(N2CCN(CCCS(=O)(=O)c3nncn3C)CC2)nc(C(C)(C)C)n1 [Example 23, 2-tert-Butyl-4-{4-[3-(4-methyl-1H-[1,2,4]triazole-3-sulfonyl)-propyl]-piperazin-1-yl}-6-isopropyl-pyrimidine]

Ki [2, 5]: < 0.005 µM
Compound: Cn1c(SCCCN2CCN(c3cc(C(F)(F)F)nc(C(C)(C)C)n3)CC2)nnc1C1CCCC1 [c.3, 2-tert-Butyl-4-{4-[3-(4-methyl-5-cyclopentyl-4H-[1,2,4]triazol-3-ylsulfanyl)-propyl]-piperazin-1-yl}-6-trifluoromethyl-pyrimidine trifluoroacetate]

Ki [2, 5]: < 0.005 µM
Compound: Cn1c(SCCCN2CCN(c3cc(C(F)F)nc(C(C)(C)C)n3)CC2)nnc1C(F)(F)F [c.6, 2-tert-Butyl-4-{4-[3-(4-methyl-5-trifluoromethyl-4H-[1,2,4]triazol-3-ylsulfanyl)-propyl]-piperazin-1-yl}-6-difluoromethyl-pyrimidine hydrochloride]

Ki [2, 5]: < 0.005 µM
Compound: Cn1c(SCCCN2CCN(c3cc(C(F)F)nc(C(C)(C)C)n3)CC2)nnc1C1CCC1 [c.20, 2-tert-Butyl-4-{4-[3-(4-methyl-5-cyclobutyl-4H-[1,2,4]triazol-3-ylsulfanyl)-propyl]-piperazin-1-yl}-6-difluoromethyl-pyrimidine hydrochloride]

Ki [2, 5]: < 0.005 µM
Compound: Cn1c(SCCCN2CCN(c3cc(C(F)F)nc(C(C)(C)C)n3)CC2)nnc1C1CC1 [c.21, 2-tert-Butyl-4-{4-[3-(4-methyl-5-cyclopropyl-4H-[1,2,4]triazol-3-ylsulfanyl)-propyl]-piperazin-1-yl}-6-difluoromethyl-pyrimidine hydrochloride]

Ki [2, 5]: < 0.005 µM
Compound: Cn1c(SCCCN2CCN(c3cc(C(F)(F)F)nc(C(C)(C)C)n3)CC2)nnc1C(C)(C)C [c.27, 2-tert-Butyl-4-{4-[3-(4-methyl-5-tert-butyl-4H-[1,2,4]triazol-3-ylsulfanyl)-propyl]-piperazin-1-yl}-6-trifluoromethyl-pyrimidine]

Ki [2, 5]: < 0.005 µM
Compound: CCc1cc(N2CCN(CCCSc3nnc(C(F)(F)F)n3C)CC2)nc(C(C)(C)C)n1 [c.28, 2-tert-Butyl-4-{4-[3-(4-methyl-5-trifluoromethyl-4H-[1,2,4]triazol-3-ylsulfanyl)-propyl]-piperazin-1-yl}-6-ethyl-pyrimidine hydrochloride]

Ki [2, 5]: < 0.005 µM
Compound: CCc1nnc(SCCCN2CCN(c3cc(C(F)F)nc(C(C)(C)C)n3)CC2)n1C [c.29, 2-tert-Butyl-4-{4-[3-(4-methyl-5-ethyl-4H-[1,2,4]triazol-3-ylsulfanyl)-propyl]-piperazin-1-yl}-6-difluoromethyl-pyrimidine hydrochloride]

Further lines, the compound ahead of its results:

Compound: Cn1cnnc1S(=O)(=O)CCCN1CCN(c2cc(C3CCC3)nc(C(C)(C)C)n2)CC1 [Example 2, 2-tert-Butyl-4-cyclobutyl-6-{4-[3-(4-methyl-4H-[1,2,4]triazole-3-sulfonyl)-propyl]-piperazin-1-yl}-pyrimidine]
Selectivity [Ki(D2)/Ki(D3)] ([1]; Table 5): 14 | Ki [2, 3]: 0.052 µM

Compound: Cn1cnnc1[S+]([O-])CCCN1CCN(c2cc(C3CCC3)nc(C(C)(C)C)n2)CC1 (centres unmarked) [Example 3, 2-tert-Butyl-4-cyclobutyl-6-{4-[3-(4-methyl-4H-[1,2,4]triazole-3-sulfinyl)-propyl]-piperazin-1-yl}-pyrimidine]
Selectivity [Ki(D2)/Ki(D3)] ([1]; Table 5): 44 | Ki [2, 3]: 0.012 µM

Compound: CCCc1cc(N2CCN(CCC[S+]([O-])c3nnc(CC)n3C)CC2)nc(C(C)(C)C)n1.Cl (centres unmarked) [Example 5, 2-tert-Butyl-4-{4-[3-(5-ethyl-4-methyl-4H-[1,2,4]triazole-3-sulfinyl)-propyl]-piperazin-1-yl}-6-propyl-pyrimidine hydrochloride]
Selectivity [Ki(D2)/Ki(D3)] ([1]; Table 5): 37 | Ki [2, 3]: 0.038 µM

Compound: Cc1nnc([S+]([O-])CCCN2CCN(c3cc(C4(C)CC4)nc(C(C)(C)C)n3)CC2)n1C (centres unmarked) [Example 6, 2-tert-Butyl-4-{4-[3-(4,5-dimethyl-4H-[1,2,4]triazole-3-sulfinyl)-propyl]-piperazin-1-yl}-6-(1-methyl-cyclopropyl)-pyrimidine]
Selectivity [Ki(D2)/Ki(D3)] ([1]; Table 5): 20 | Ki [2, 3]: 0.0287 µM

Compound: CCCc1cc(N2CCN(CCC[S+]([O-])c3nnc(C)n3C)CC2)nc(C(C)(C)C)n1.Cl (centres unmarked) [Example 8, 2-tert-Butyl-4-{4-[3-(4,5-dimethyl-4H-[1,2,4]triazole-3-sulfinyl)-propyl]-piperazin-1-yl}-6-propyl-pyrimidine hydrochloride]
Selectivity [Ki(D2)/Ki(D3)] ([1]; Table 5): 33 | Ki [2, 3]: 0.056 µM

Compound: CCCc1cc(N2CCN(CCCS(=O)(=O)c3nnc(C)n3C)CC2)nc(C(C)(C)C)n1 [Example 9, 2-Di-tert-butyl-6-{4-[3-(4,5-dimethyl-4H-[1,2,4]triazole-3-sulfonyl)-propyl]-piperazin-1-yl}-6-propyl-pyrimidine]
Selectivity [Ki(D2)/Ki(D3)] ([1]; Table 5): 45 | Ki [2, 3]: 0.0183 µM

Compound: Cc1nnc(S(=O)(=O)CCCN2CCN(c3cc(C4(C)CC4)nc(C(C)(C)C)n3)CC2)n1C [Example 10, 2-tert-Butyl-4-{4-[3-(4,5-dimethyl-4H-[1,2,4]triazole-3-sulfonyl)-propyl]-piperazin-1-yl}-6-(1-methyl-cyclopropyl)-pyrimidine]
Selectivity [Ki(D2)/Ki(D3)] ([1]; Table 5): 37 | Ki [2, 3]: 0.0078 µM

Compound: CCCc1cc(N2CCN(CCCS(=O)(=O)c3nnc(CC)n3C)CC2)nc(C(C)(C)C)n1 [Example 12, 2-tert-Butyl-4-{4-[3-(5-ethyl-4-methyl-4H-[1,2,4]triazole-3-sulfonyl)-propyl]-piperazin-1-yl}-6-propyl-pyrimidine]
Selectivity [Ki(D2)/Ki(D3)] ([1]; Table 5): 55 | Ki [2, 3]: 0.0128 µM

Compound: Cn1c(-c2ccc(F)cc2)nnc1[S+]([O-])CCCN1CCN(c2cc(C(F)(F)F)nc(C(C)(C)C)n2)CC1 (centres unmarked) [Example 15, 2-tert-Butyl-4-(4-{3-[5-(4-fluoro-phenyl)-4-methyl-4H[1,2,4]triazole-3-sulfinyl]-propyl}-piperazin-1-yl)-6-trifluoromethyl-pyrimidine]
Selectivity [Ki(D2)/Ki(D3)] ([1]; Table 5): 100 | Ki [2, 3]: 0.0126 µM

Compound: Cl.Cn1c(-c2ccc(F)cc2)nnc1S(=O)(=O)CCCN1CCN(c2cc(C(F)(F)F)nc(C(C)(C)C)n2)CC1 [Example 16, 2-tert-Butyl-4-(4-{3-[5-(4-fluoro-phenyl)-4-methyl-4H-[1,2,4]triazole-3-sulfonyl]-propyl}-piperazin-1-yl)-6-trifluoromethyl-pyrimidine hydrochloride]
Selectivity [Ki(D2)/Ki(D3)] ([1]; Table 5): 56 | Ki [2, 3]: 0.0177 µM

Compound: Cn1cnnc1S(=O)(=O)CCCN1CCN(c2cc(C(C)(C)C)nc(C(C)(C)C)n2)CC1 [Example 17, 2,4-Di-tert-butyl-6-{4-[3-(4-methyl-4H-[1,2,4]triazole-3-sulfonyl)-propyl]-piperazin-1-yl}-pyrimidine]
Selectivity [Ki(D2)/Ki(D3)] ([1]; Table 6): 53 | Ki [2, 4]: 0.00595 µM

Compound: Cn1cnnc1[S+]([O-])CCCN1CCN(c2cc(C(C)(C)C)nc(C(C)(C)C)n2)CC1 (centres unmarked) [Example 18, 2,4-Di-tert-butyl-6-{4-[3-(4-methyl-4H-[1,2,4]triazole-3-sulfinyl)-propyl]-piperazin-1-yl}-pyrimidine]
Selectivity [Ki(D2)/Ki(D3)] ([1]; Table 6): 17 | Ki [2, 4]: 0.025 µM

Compound: Cl.Cn1cnc(S(=O)(=O)CCCN2CCN(c3cc(C(F)(F)F)nc(C(C)(C)C)n3)CC2)n1 [Example 19, 2-tert-Butyl-4-{4-[3-(1-methyl-1H-[1,2,4]triazole-3-sulfonyl)-propyl]-piperazin-1-yl}-6-trifluoromethyl-pyrimidine hydrochloride]
Selectivity [Ki(D2)/Ki(D3)] ([1]; Table 6): 17 | Ki [2, 4]: 0.032 µM

Compound: Cl.Cn1ncnc1S(=O)(=O)CCCN1CCN(c2cc(C(C)(C)C)nc(C(C)(C)C)n2)CC1 [Example 20, 2,4-Di-tert-butyl-6-{4-[3-(2-methyl-2H-[1,2,4]triazole-3-sulfonyl)-propyl]-piperazin-1-yl}-pyrimidine hydrochloride]
Selectivity [Ki(D2)/Ki(D3)] ([1]; Table 6): 8 | Ki [2, 4]: 0.0262 µM
